Patent US9120793B2, “Triazolo-pyridine compound” (Eli Lilly and Company, priority 2013, dated 2015)

Assays:
[1] = target: T1, PPARδ (Homo sapiens, UniProt Q03181); assay: PPARδ reporter (CTF)/functional assay in CV1 cells; format: cell-based; settings: examined up to 10 μM; efficacy <20% considered negative
T1 construct: expressed in transfected cells; host or cells: CV1 (African green monkey kidney)
T1 sequence (Q03181 211-439 limits assumed): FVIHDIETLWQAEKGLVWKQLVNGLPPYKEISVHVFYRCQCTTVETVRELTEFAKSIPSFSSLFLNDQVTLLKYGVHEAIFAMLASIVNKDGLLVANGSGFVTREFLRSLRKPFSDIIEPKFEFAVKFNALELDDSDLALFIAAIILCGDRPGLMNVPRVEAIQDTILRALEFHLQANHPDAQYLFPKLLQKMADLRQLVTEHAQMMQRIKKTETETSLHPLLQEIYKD
Source text: Because GPR-40 is known to be activated by ligands to PPARγ, exemplified compounds are examined in PPARα, PPARδ, and PPARγ reporter assays to determine the selectivity of an exemplified compound. CV1 cells, which are derived from the renal tissue of an African green monkey, are transfected with various receptor and reporter plasmids using Fugene. For the PPARα and PPARδ assays, a reporter plasmid containing five tandem copies of the yeast transcription protein Gal4 response element, cloned upstream of a firefly luciferase gene driven by the major late promoter of adenovirus, is transfected together with a Simian Virus 40 (SV40) driven plasmid constitutively expressing a hybrid protein containing the Gal4 DNA binding domain (DBD), and either the PPARα or PPARδ ligand binding domain. For the PPARγ assay, plasmids encoding PPARγ and RXRα, both driven by a cytomegalovirus (CMV) promoter are transfected together with a plasmid containing luciferase reporter cDNA driven by the TK promoter and a receptor response element (2×PPRE). […] After 24 hours incubation with compound, cells are lysed and luciferase activity is determined as a measure of receptor activation by luminescence. […] The maximum percent stimulation is determined versus maximum stimulation obtained with 10 μM of an appropriate PPAR agonist reference compound. […]

[2] = tested on: Male Balb/c mice; assay: Intraperitoneal glucose tolerance test (ipGTT); format: in vivo; parameters: key to Effect on blood glucose, statistical significance compared to vehicle during ipGTT: *P < 0.05; **P < 0.01; ****P < 0.0001; ns: not significant
Source text: To examine the ability of the compound of Example 1 to activate GPR-40 in-vivo resulting in anti-diabetic efficacy, i.e. reduction in plasma glucose levels, an intraperitoneal glucose tolerance test (ipGTT) study is completed, and the data is shown for the compound of Example 1, below in Table 7.
Male Balb/c (Albino mice) mice (8-9 weeks of age) are single housed, and fed with normal rodent chow diet and water ad libitum. Animals are weighed; randomized by body weight; and their daily body weights are recorded. On the night before the study, animals are fasted overnight. In the morning, animals are dosed orally with compound of Example 1 or vehicle alone 60 minutes prior to the glucose tolerance test (glucose 2 g/kg, i.p.). Blood glucose levels are determined from tail bleeds taken at 0, 3, 7, 15, 30, and 60 min after glucose challenge. […] Percent lowering in glucose is calculated from the AUC data of the compound with respect to the AUC of vehicle group. The compound of Example 1 is orally administered at 0.1, 0.3, 1.0, 3.0, 10, or 30 mg/kg, and a positive control (3-[4-(2-methyl-benzyloxy)-phenyl]-hex-4-ynoic acid) is administered at 10 mg/kg.

CC#C[C@@H](CC(=O)O)c1ccc(OCc2ccc3nc(-c4c(C)cccc4C)nn3c2)cc1 [Example 1, (3S)-3-[4-[[2-(2,6-Dimethylphenyl)-[1,2,4]triazolo[1,5-a]pyridin-6-yl]methoxy]phenyl]hex-4-ynoic acid]
functional activation of PPARδ [1]: No functional activation | glucose levels at the 15 minute time point ([2]; 30 mg/kg dose, oral): significantly lowered | glucose levels at the 3 or 7 minute time points ([2]; Example 1 0.1-30 mg/kg oral, positive control 10 mg/kg): No concentration of compound of Example 1 or the positive control significantly lowered | glucose levels at the 30 minute time point ([2]; Example 1 1.0, 10 and 30 mg/kg doses, positive control 10 mg/kg): significantly lowered | glucose levels at the 60 minute time point ([2]; Example 1 3.0, 10 and 30 mg/kg doses, positive control 10 mg/kg): significantly lowered | ED50 ([2]; Mus musculus, oral, 60 minutes prior to glucose 2 g/kg i.p., read-out: ED50 based on AUCs for glucose lowering): 7.6 mg/kg | Effect on blood glucose, statistical significance compared to vehicle during ipGTT ([2]; dose 0.1 mpk oral, time 0 min): Ns | Effect on blood glucose, statistical significance compared to vehicle during ipGTT ([2]; dose 0.1 mpk oral, time 3 min): ns | Effect on blood glucose, statistical significance compared to vehicle during ipGTT ([2]; dose 0.1 mpk oral, time 7 min): ns | Effect on blood glucose, statistical significance compared to vehicle during ipGTT ([2]; dose 0.1 mpk oral, time 15 min): Ns | Effect on blood glucose, statistical significance compared to vehicle during ipGTT ([2]; dose 0.1 mpk oral, time 30 min): ns | Effect on blood glucose, statistical significance compared to vehicle during ipGTT ([2]; dose 0.1 mpk oral, time 60 min): ns | Effect on blood glucose, statistical significance compared to vehicle during ipGTT ([2]; dose 0.3 mpk oral, time 0 min): Ns | Effect on blood glucose, statistical significance compared to vehicle during ipGTT ([2]; dose 0.3 mpk oral, time 3 min): ns | Effect on blood glucose, statistical significance compared to vehicle during ipGTT ([2]; dose 0.3 mpk oral, time 7 min): ns | Effect on blood glucose, statistical significance compared to vehicle during ipGTT ([2]; dose 0.3 mpk oral, time 15 min): ns | Effect on blood glucose, statistical significance compared to vehicle during ipGTT ([2]; dose 0.3 mpk oral, time 30 min): ns | Effect on blood glucose, statistical significance compared to vehicle during ipGTT ([2]; dose 0.3 mpk oral, time 60 min): ns | Effect on blood glucose, statistical significance compared to vehicle during ipGTT ([2]; dose 1 mpk oral, time 0 min): Ns | Effect on blood glucose, statistical significance compared to vehicle during ipGTT ([2]; dose 1 mpk oral, time 3 min): ns | Effect on blood glucose, statistical significance compared to vehicle during ipGTT ([2]; dose 1 mpk oral, time 7 min): ns | Effect on blood glucose, statistical significance compared to vehicle during ipGTT ([2]; dose 1 mpk oral, time 15 min): ns | Effect on blood glucose, statistical significance compared to vehicle during ipGTT ([2]; dose 1 mpk oral, time 30 min): * (*P < 0.05) | Effect on blood glucose, statistical significance compared to vehicle during ipGTT ([2]; dose 1 mpk oral, time 60 min): ns | Effect on blood glucose, statistical significance compared to vehicle during ipGTT ([2]; dose 3 mpk oral, time 0 min): Ns | Effect on blood glucose, statistical significance compared to vehicle during ipGTT ([2]; dose 3 mpk oral, time 3 min): ns | Effect on blood glucose, statistical significance compared to vehicle during ipGTT ([2]; dose 3 mpk oral, time 7 min): ns | Effect on blood glucose, statistical significance compared to vehicle during ipGTT ([2]; dose 3 mpk oral, time 15 min): ns | Effect on blood glucose, statistical significance compared to vehicle during ipGTT ([2]; dose 3 mpk oral, time 30 min): ns | Effect on blood glucose, statistical significance compared to vehicle during ipGTT ([2]; dose 3 mpk oral, time 60 min): ** (**P < 0.01) | Effect on blood glucose, statistical significance compared to vehicle during ipGTT ([2]; dose 10 mpk oral, time 0 min): Ns | Effect on blood glucose, statistical significance compared to vehicle during ipGTT ([2]; dose 10 mpk oral, time 3 min): ns | Effect on blood glucose, statistical significance compared to vehicle during ipGTT ([2]; dose 10 mpk oral, time 7 min): ns | Effect on blood glucose, statistical significance compared to vehicle during ipGTT ([2]; dose 10 mpk oral, time 15 min): ns | Effect on blood glucose, statistical significance compared to vehicle during ipGTT ([2]; dose 10 mpk oral, time 30 min): **** (****P < 0.0001) | Effect on blood glucose, statistical significance compared to vehicle during ipGTT ([2]; dose 10 mpk oral, time 60 min): **** (****P < 0.0001) | Effect on blood glucose, statistical significance compared to vehicle during ipGTT ([2]; dose 30 mpk oral, time 0 min): Ns | Effect on blood glucose, statistical significance compared to vehicle during ipGTT ([2]; dose 30 mpk oral, time 3 min): ns | Effect on blood glucose, statistical significance compared to vehicle during ipGTT ([2]; dose 30 mpk oral, time 7 min): ns | Effect on blood glucose, statistical significance compared to vehicle during ipGTT ([2]; dose 30 mpk oral, time 15 min): ** (**P < 0.01) | Effect on blood glucose, statistical significance compared to vehicle during ipGTT ([2]; dose 30 mpk oral, time 30 min): **** (****P < 0.0001) | Effect on blood glucose, statistical significance compared to vehicle during ipGTT ([2]; dose 30 mpk oral, time 60 min): **** (****P < 0.0001)
